Assay results as given in patent US7129243B2, “Peptide compounds” (Astellas Pharma Inc., priority 2001, dated 2006).

Tested on: production of nitric oxide in murine macrophage cell line RAW264.7
Assay: Assay for inhibitory activity on the production of nitric oxide
Format: cell-based
Conditions: Mus musculus; test compound 10^−6 M; RAW264.7 cells activated with LPS (1 μg/ml) and INF γ (3 u/ml) for 18–24 hours; NO2^− by Griess reagent
Method: The murine macrophage cell line RAW264.7 (American Type Culture Collection, No. TIB71) was used in this study. RAW264.7 cells were grown on […] plastic culture flasks at 37° C., 5% in Dulbecco's modified Eagle's medium (DMEM) supplemented with L-glutamine, penicillin, streptomycin and 10% heat-inactivated fetal bovine serum. They were removed from culture flasks by rubber cell scraper and were centrifuged and resuspended in DEM without phenol red. They were plated in 96-well microtiter plates (10^5 cells per well) and allowed to adhere over 2 hours. The test samples were added and the cells were preincubated for 1 hour. Thereafter the cells were activated with both of lipopolysaccharide (LPS) (1 μg/ml) and interferon γ (INF γ) (3 u/ml) for 18-24 hours. An equal volume of Griess reagent (1% sulfanilamide/0.1% N-naphthylethylenediamine dihydrochloride/2.5% H3PO4) was added and the cells were incubated at room temperature for 10 minutes. The absorbance was read at 570 nm using microplate reader and NO2^- was measured using NaNO2 as a standard.

Compound	inhibition at 1 µM [%]
O=C(N[C@@H](Cc1ccccn1)C(=O)NCC(=O)N1CCC(Oc2nccs2)CC1)c1cc2cc(Cl)ccc2o1 [Compound (a), 5-Chloro-N-[(1S)-2-oxo-2-({2-oxo-2-[4-(1,3-thiazol-2-yloxy)-1-piperidinyl]ethyl}amino)-1-(2-pyridylmethyl)ethyl]-1-benzofuran-2-carboxamide]	100
O=C(/C=C/c1ccc(Cl)cc1)N[C@@H](Cc1ccccn1)C(=O)NCC(=O)N1CCC(Oc2cnccn2)CC1 [Compound (b), (2E)-3-(4-Chlorophenyl)-N-[(1S)-2-oxo-2-({2-oxo-2-[4-(2-pyrazinyloxy)-1-piperidinyl]ethyl}amino)-1-(2-pyridylmethyl)ethyl]acrylamide]	97.6
O=C(/C=C/c1ccc(Cl)cc1)N[C@@H](Cc1ccccn1)C(=O)NCC(=O)N1CCC(Oc2ccccc2)CC1 [Compound (e), (2E)-3-(4-Chlorophenyl)-N-[(1S)-2-oxo-2-{[2-oxo-2-(4-phenoxy-1-piperidinyl)ethyl]amino}-1-(2-pyridylmethyl)ethyl]-acrylamide]	100
O=C(N[C@@H](Cc1ccccn1)C(=O)NCC(=O)N1CCC(Oc2ccccn2)CC1)c1cc2cc(Cl)ccc2o1 [Compound (d), 5-Chloro-N-[(1S)-2-oxo-2-({2-oxo-2-[4-(2-pyridyloxy)-1-piperidinyl]ethyl}amino)-1-(2-pyridylmethyl)ethyl]-1-benzofuran-2-carboxamide]	100
COc1cccc(OC2CCN(C(=O)CNC(=O)[C@H](Cc3ccccn3)NC(=O)c3cc4cc(Cl)ccc4o3)CC2)n1 [Compound (c), 5-Chloro-N-[(1S)-2-[(2-{4-[(6-methoxy-2-pyridyl)oxy]-1-piperidinyl}-2-oxoethyl)amino]-2-oxo-1-(2-pyridylmethyl)ethyl]-1-benzofuran-2-carboxamide]	100
CC(C)OC1CCN(C(=O)CNC(=O)[C@H](Cc2ccccn2)NC(=O)/C=C/c2ccc(Cl)cc2)CC1 [Compound (g), (2E)-3-(4-Chlorophenyl)-N-[(1S)-2-{[2-(4-isopropoxy-1-piperidinyl)-2-oxoethyl]amino}-2-oxo-1-(2-pyridylmethyl)ethyl]acrylamide]	100
O=C(N[C@@H](Cc1ccccn1)C(=O)NCC(=O)N1CCC(OCC(F)(F)F)CC1)c1cc2cc(Cl)ccc2o1 [Compound (f), 5-Chloro-N-[(1S)-2-oxo-2-({2-oxo-2-[4-(2,2,2-trifluoroethoxy)-1-piperidinyl]ethyl}amino)-1-(2-pyridylmethyl)-ethyl]-1-benzofuran-2-carboxamide]	100
